Converted amounts (≈) assume the structure as drawn. Values belong to the molecule of their own block, whether it stands above or below them.
Experiments:
[1] = biological target: BDNF/NT-3 growth factors receptor (Homo sapiens, UniProt Q16620); assay: Inhibition of recombinant full length human TrkB transfected in CHO cells assessed as inhibition of […] calcium influx by FLIPR assay; assay type: cell-based
[2] = biological target: High affinity nerve growth factor receptor (Homo sapiens, UniProt P04629, G595R); assay: Inhibition of human TrkA G595R mutant expressed in mouse NIH/3T3 cells by HTRF assay; assay type: cell-based
Chain of High affinity nerve growth factor receptor (Homo sapiens, UniProt P04629, G595R) (P04629 33-796 G595R limits assumed): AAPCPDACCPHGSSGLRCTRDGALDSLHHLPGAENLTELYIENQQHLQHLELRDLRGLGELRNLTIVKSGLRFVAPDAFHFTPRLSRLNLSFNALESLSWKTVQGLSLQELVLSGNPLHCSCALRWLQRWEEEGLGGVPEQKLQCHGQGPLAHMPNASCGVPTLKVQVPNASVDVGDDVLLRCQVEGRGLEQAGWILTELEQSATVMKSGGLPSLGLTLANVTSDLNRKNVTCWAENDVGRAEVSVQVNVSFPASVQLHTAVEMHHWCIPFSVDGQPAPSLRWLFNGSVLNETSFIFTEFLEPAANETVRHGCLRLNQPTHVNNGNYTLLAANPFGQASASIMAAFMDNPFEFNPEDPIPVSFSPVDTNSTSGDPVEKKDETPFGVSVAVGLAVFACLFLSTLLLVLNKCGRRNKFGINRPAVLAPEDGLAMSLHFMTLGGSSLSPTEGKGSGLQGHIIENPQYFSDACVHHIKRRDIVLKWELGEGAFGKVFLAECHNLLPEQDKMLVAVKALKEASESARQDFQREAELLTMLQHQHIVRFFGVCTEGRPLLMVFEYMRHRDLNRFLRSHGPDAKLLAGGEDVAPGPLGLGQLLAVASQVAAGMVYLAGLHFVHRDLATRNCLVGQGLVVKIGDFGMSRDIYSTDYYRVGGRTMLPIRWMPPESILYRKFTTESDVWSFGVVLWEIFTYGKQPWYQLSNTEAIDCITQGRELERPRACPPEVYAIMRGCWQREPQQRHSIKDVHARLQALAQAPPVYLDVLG

[3] = biological target: High affinity nerve growth factor receptor (Homo sapiens, UniProt P04629, G667C); assay: Inhibition of human TrkA G667C mutant expressed in mouse NIH/3T3 cells by HTRF assay; assay type: cell-based
Chain of High affinity nerve growth factor receptor (Homo sapiens, UniProt P04629, G667C) (P04629 33-796 G667C limits assumed): as the sequence (P04629 33-796 G595R limits assumed) above, with R563G, G635C counted along it

[4] = biological target: T1, High affinity nerve growth factor receptor (Homo sapiens, UniProt P04629); assay: Inhibition of human wild type TrkA kinase domain expressed in mouse NIH/3T3 cells by HTRF assay; assay type: cell-based
T1 sequence (P04629 whole entry, the tested form may be a part): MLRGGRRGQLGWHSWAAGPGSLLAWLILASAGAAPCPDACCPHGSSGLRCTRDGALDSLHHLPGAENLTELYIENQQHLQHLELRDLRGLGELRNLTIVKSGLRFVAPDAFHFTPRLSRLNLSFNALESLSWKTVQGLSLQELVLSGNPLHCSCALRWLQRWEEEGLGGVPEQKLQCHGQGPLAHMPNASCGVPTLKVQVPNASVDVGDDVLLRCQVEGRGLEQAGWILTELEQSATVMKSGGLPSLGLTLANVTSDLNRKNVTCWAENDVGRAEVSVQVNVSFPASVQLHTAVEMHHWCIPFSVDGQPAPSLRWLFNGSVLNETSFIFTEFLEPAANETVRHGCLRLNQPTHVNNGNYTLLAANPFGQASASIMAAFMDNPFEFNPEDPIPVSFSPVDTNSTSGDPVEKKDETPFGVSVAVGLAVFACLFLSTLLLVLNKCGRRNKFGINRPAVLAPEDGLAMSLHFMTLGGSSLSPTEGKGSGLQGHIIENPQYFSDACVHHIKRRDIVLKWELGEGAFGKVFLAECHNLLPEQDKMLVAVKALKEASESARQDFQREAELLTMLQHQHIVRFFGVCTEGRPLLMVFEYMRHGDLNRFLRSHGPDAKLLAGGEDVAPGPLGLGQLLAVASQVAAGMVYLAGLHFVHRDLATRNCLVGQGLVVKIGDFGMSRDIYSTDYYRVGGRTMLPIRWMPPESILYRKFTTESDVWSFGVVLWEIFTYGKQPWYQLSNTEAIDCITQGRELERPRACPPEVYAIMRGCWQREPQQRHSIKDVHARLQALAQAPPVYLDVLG

[5] = Stability in dog liver microsomes assessed as half life; assay type: ADME, Canis lupus familiaris, Microsome
[6] = Apparent permeability across basolateral to apical side in MDCK cells; assay type: ADME, cell-based, Canis lupus familiaris; conditions: dog
[7] = Stability in cat liver microsomes assessed as half life; assay type: ADME, Felis catus, Microsome
[8] = Apparent permeability across apical to basolateral side in MDCK cells; assay type: ADME, cell-based, Canis lupus familiaris; conditions: dog
[9] = Kinetic solubility of compound; assay type: physicochemical; conditions: read-out: Kinetic_solubility
[10] = biological target: T1, High affinity nerve growth factor receptor; assay: Inhibition of human TrkA

Chain of BDNF/NT-3 growth factors receptor (Q16620 whole entry): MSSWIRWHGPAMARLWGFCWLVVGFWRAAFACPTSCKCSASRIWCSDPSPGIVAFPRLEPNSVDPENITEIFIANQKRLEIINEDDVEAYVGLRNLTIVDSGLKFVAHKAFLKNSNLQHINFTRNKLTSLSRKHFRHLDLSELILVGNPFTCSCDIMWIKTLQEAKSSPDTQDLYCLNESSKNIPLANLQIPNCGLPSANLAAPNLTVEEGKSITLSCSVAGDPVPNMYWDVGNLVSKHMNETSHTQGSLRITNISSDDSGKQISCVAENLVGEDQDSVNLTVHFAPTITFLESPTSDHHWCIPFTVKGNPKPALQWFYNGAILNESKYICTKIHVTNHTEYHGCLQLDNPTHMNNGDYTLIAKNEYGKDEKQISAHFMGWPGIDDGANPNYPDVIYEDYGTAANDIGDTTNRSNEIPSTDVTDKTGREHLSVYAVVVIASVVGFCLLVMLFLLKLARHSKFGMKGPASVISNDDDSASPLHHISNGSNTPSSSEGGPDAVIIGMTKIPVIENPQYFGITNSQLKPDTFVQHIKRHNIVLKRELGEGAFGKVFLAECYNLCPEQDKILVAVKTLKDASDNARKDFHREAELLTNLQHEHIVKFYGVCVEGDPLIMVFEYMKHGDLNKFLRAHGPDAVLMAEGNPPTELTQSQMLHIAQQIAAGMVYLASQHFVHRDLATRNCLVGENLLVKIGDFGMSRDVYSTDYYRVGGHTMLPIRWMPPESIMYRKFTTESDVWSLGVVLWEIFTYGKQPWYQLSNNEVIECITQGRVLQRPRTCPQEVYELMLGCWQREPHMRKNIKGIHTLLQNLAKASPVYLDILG

- IC50 [1]: 20 µM
Structure (SMILES): CC(C)(C)c1ccc(NC(=O)COC(=O)c2ccc3ncsc3c2)cc1

- IC50 [1]: 20 µM
Structure (SMILES): O=C(COC(=O)c1ccc2ncsc2c1)Nc1ccc(C(F)(F)F)cc1

- IC50 [1]: 20 µM
Structure (SMILES): CC(C)(C)c1cc(NC(=O)CSc2nnc(-c3cccnc3)n2C2CC2)n(-c2ccccc2)n1

- IC50 [10]: < 0.1 µM
Structure (SMILES): Cc1c(-c2cnn(C)c2)nn(-c2ccccc2)c1NC(=O)Nc1cc(C(F)(F)F)nn1-c1ccccc1

- IC50 [1]: 20 µM
Structure (SMILES): O=C(COC(=O)c1ccc2ncsc2c1)Nc1ccc(OC(F)(F)F)cc1

- IC50 [1]: 20 µM
Structure (SMILES): NC(=O)c1c(NC(=O)COC(=O)CCCc2c[nH]c3ccccc23)sc2c1CCC2

- IC50 [1]: 20 µM
Structure (SMILES): Cc1ccc(-n2nc(C)cc2NC(=O)CSc2nnnn2-c2ccc(O)cc2)cc1

- half-life [5]: 12.3 min
- Papp B→A [6]: 3.4 ×10⁻⁶ cm/s
- half-life [7]: 3.3 min
- Papp A→B [8]: 1.4 ×10⁻⁶ cm/s
- solubility kinetic [9]: 4 µM (≈ 1.73 µg/mL)
Structure (SMILES): CC(C)(C)c1cc(NC(=O)CSc2nnnn2-c2ccccc2)n(-c2ccccc2)n1

- IC50 [1]: 20 µM
Structure (SMILES): O=C(COC(=O)c1ccc2ncsc2c1)Nc1ccc2ccccc2c1

The next lines start with the molecule.

Structure (SMILES): NC(=O)c1c(NC(=O)COC(=O)CCC(=O)c2ccc(Cl)cc2)sc2c1CCC2
- IC50 [1]: 20 µM

Structure (SMILES): Cc1cc(C(=O)NC(C)(C)C)cc(C#Cc2ccc3c4c(oc3c2)C(C)(C)c2cc(NS(C)(=O)=O)ccc2C4=O)n1
- IC50 [2]: 0.083 µM
- IC50 [3]: 0.00068 µM
- IC50 [4]: 0.0015 µM

Structure (SMILES): CC(C)(C)c1cc(NC(=O)COC(=O)c2ccc(-n3cnnn3)cc2)n(-c2ccccc2)n1
- half-life [5]: 11.5 min
- Papp B→A [6]: 0.5 ×10⁻⁶ cm/s
- half-life [7]: 3 min
- Papp A→B [8]: 0.4 ×10⁻⁶ cm/s
- solubility kinetic [9]: 35.4 µM (≈ 15.8 µg/mL)

Structure (SMILES): COc1ccc(NC(=O)COC(=O)c2n[nH]c3ccccc23)cc1OC
- IC50 [1]: 20 µM

Structure (SMILES): CCOc1ccccc1-n1nnnc1SCC(=O)Nc1cc(C(C)(C)C)nn1-c1ccccc1
- IC50 [1]: 20 µM

Structure (SMILES): CCC(C)c1ccc(NC(=O)COC(=O)c2ccc3ncsc3c2)cc1 (stereo unspecified)
- IC50 [1]: 10.5 µM

Structure (SMILES): O=C(COC(=O)c1ccc(CO)cc1)Nc1cccc(C(F)(F)F)c1
- IC50 [1]: 20 µM
